The text below walks through data of ChEMBL document CHEMBL1144113, “Methanol adduct of puupehenone, a biologically active derivative from the marine sponge Hyrtios species” (J Nat Prod, 1999).

Values after ≈ are worked out from the molar mass of the structure shown.

Data set [1] concerns Plasmodium falciparum. Put plainly: Antimalarial activity against chloroquine-sensitive Plasmodium falciparum F32 in human erythrocytes after 48 hrs by [G-3H]hypoxanthine uptake. As to conditions: F32, 48 h. The class given is functional, organism-based.
The subject of data set [2] is Plasmodium falciparum. The data set can be described thus: Antimalarial activity against chloroquine-resistant Plasmodium falciparum FcB1 in human erythrocytes after 48 hrs by [G-3H]hypoxanthine uptake. The class given is functional, organism-based. The conditions noted are these: FcB1, 48 h.
Data set [3] concerns Plasmodium falciparum. Put plainly: Antimalarial activity against chloroquine-resistant Plasmodium falciparum PFB in human erythrocytes after 48 hrs by [G-3H]hypoxanthine uptake. It counts as functional, organism-based.
A further data set relates to KB. Put plainly: Cytotoxicity against human KB cells by neutral red assay. It counts as functional, cell-based.
Data set [4] in a line: Toxicity against Artemia salina. The conditions noted are these: in vivo. The class given is organism-based.
In a further data set the test system is Candida tropicalis. The data set can be described thus: Antifungal activity against Candida tropicalis at 50 ug/disk after 48 hrs by paper disk method. The class given is functional. The conditions noted are these: read-out: IZ.
For the next data set, the system named is Staphylococcus aureus. Put plainly: Antibacterial activity against Staphylococcus aureus at 1 ug/disk after 24 hrs by paper disk method. The class given is functional. The conditions noted are these: read-out: IZ.

`CO[C@@H]1c2cc(OC(C)=O)c(OC(C)=O)cc2O[C@@]2(C)CC[C@H]3C(C)(C)CCC[C@]3(C)[C@@H]12`: the IC50 with Plasmodium falciparum [1] is 0.6 µg/mL (≈ 1.35 µM); with Plasmodium falciparum [2], 1.4 µg/mL (≈ 3.15 µM); in the data set with Plasmodium falciparum [3], 1.2 µg/mL (≈ 2.7 µM).
On to `CC1(C)CCC[C@]2(C)[C@H]3C=C4C=C(O)C(=O)C=C4O[C@@]3(C)CC[C@@H]12` [PUUPEHENONE], for which the IC50 in the data set on KB worked out at 0.5 µg/mL (≈ 1.52 µM); in the data set with Plasmodium falciparum [1], 0.6 µg/mL (≈ 1.83 µM); in the data set on Plasmodium falciparum [2] it was 2.1 µg/mL (≈ 6.39 µM); in the data set on Plasmodium falciparum [3], 1.5 µg/mL (≈ 4.57 µM). In data set [4], this compound gave an LC50 of 20 µg/mL (≈ 60.9 µM).
Turning to `CO[C@@H]1c2cc(O)c(O)cc2O[C@@]2(C)CC[C@H]3C(C)(C)CCC[C@]3(C)[C@@H]12`, the zone of inhibition at 50 µg/disc in the data set on Candida tropicalis turned out to be 9 mm. Also, the IC50 amounted to 6 µg/mL (≈ 16.6 µM) with KB, 0.4 µg/mL (≈ 1.11 µM) with Plasmodium falciparum [1], 1.4 µg/mL (≈ 3.88 µM) in the data set with Plasmodium falciparum [2] and 1.2 µg/mL (≈ 3.33 µM) with Plasmodium falciparum [3]. Moreover, the zone of inhibition at 1 µg/disc in the data set on Staphylococcus aureus was determined as 7 mm.

The IC50 is the point on the concentration scale where inhibition reaches its midpoint. As usually defined, the LC50 is the concentration lethal to half of the exposed cells or organisms.
